Tests used:
Assay in all cases: Cell growth inhibitory effect, cell counting kit 8, 6 days
Format in all cases: cell-based
[1] = test system: NCI-H226 cells, a human mesothelioma cell line; details: 144 h, 6 days incubation
Source text: (§1) Cell growth inhibitory effect on human mesothelioma, human liver cancer, human ovarian cancer, and […]
(§2) NCI-H226 cells, a human mesothelioma cell line (ATCC, CRL-5826), NCI-H322 cells, a human lung cancer cell line (the European Collection of Authenticated Cell Cultures, 95111734), OVTOKO cells, a human ovarian cancer cell line (JCRB cell bank, JCRB1048) and HuH28, a human liver cancer cell line (JCRB cell bank, JCRB0426) were each subcultured by keeping the cell density under 80% in a RPMI1640 culture medium with 10% fetal bovine serum (FBS). NCI-H226 cells, NCI-H322 cells and SSP-25 cells were each suspended in the RPM11640 culture medium mentioned above, and plated to a 96-well flat-bottom plate at 500 cells/well in each well, and incubated at 37° C. in an incubator with 5% CO2 for one day. After the incubation, the evaluation of cell growth inhibitory activity was started. OVTOKO cells were suspended in the RPMI1640 culture medium mentioned above, and plated to a 96-well flat-bottom plate at 250 cells/well in each well, and incubated it at 37° C. in an incubator with 5% CO2 for one day. After the incubation, the evaluation of the cell growth inhibitory activity was started. The next day, a test compound was serially diluted to 5 times of its final concentration in the RPM11640 culture medium mentioned above, and the diluted solution was added to each well. In this case, the final concentration of DMSO in each well was adjusted to 0.1%. After the test compound was added, cells were incubated at 37° C. in an incubator with 5% CO2 for 6 days. At the addition of the test compound and 6 days after the addition, the cell counting measurement was performed using a cell counting kit 8 (made by DOJINDO) according to a protocol equivalent to DOJINDO's recommendation. A reagent contained in the kit was added to each plate and color reaction was performed for 2 or 3 hours at 37° C. in an incubator with 5% CO2. After the reaction, an absorbance at wavelength of 450 nm was measured using a microplate reader. A growth inhibition rate was calculated according to the following formula, from which the concentration of a test compound at which cell growth was inhibited by 50% (GI50 value) was determined.

[2] = test system: NCI-H322 cells, a human lung cancer cell line; details: 144 h, 6 days incubation
Source text: as §1, §2

[3] = test system: HuH28, a human liver cancer cell line; details: 144 h, HuH28 cells, 6 days incubation
Source text: as §1, §2

[4] = group 100 nmol/L to 1 μmol/L (upper bound given in μmol/L)

Row | GI50 ([1]; group less than 100 nmol/L) [nM] | GI50 [2] [nM] | GI50 [3] [nM] | GI50 [1, 4] [nM] | Compound
1 | < 100 | < 1000 | < 3000 |  | C=CC(=O)NCc1ccc(Nc2ccc(C(F)(F)F)cc2)c2ncccc12 [Compound 203, N-{(8-[{4-(Trifluoromethyl)phenyl}amino]quinolin-5-yl)methyl}acrylamide]
2 | < 100 | < 1000 | < 3000 |  | C=CC(=O)NC1COc2c(Oc3ccc(C(F)(F)F)cc3)cccc2C1=O (racemic) [Compound 40, N-[4-Oxo-8-{4-(tolyloromethyl)phenoxy}chroman-3-yl]acrylamide]
3 | < 100 | < 1000 | < 3000 |  | C=CC(=O)NC1CCOc2c1ccc(Oc1ccc(C(F)(F)F)cc1)c2OC (racemic) [Compound 33, N-[8-Methoxy-7-{4-(trifluoromethyl)phenoxy}chroman-4-yl]acrylamide]
4 | < 100 | < 1000 | < 3000 |  | C=CC(=O)NCc1ccc(Oc2ccc(C(F)(F)F)nc2)c2ncc(C)cc12 [Compound 200, N-{(3-Methyl-8-[{6-(trifluoromethyl)pyridin-3-yl}oxy]quinolin-5-yl)methyl}acrylamide]
5 | < 100 | < 1000 | < 3000 |  | C=CC(=O)N[C@H]1CC[C@@H](Oc2cccc(Cl)c2)c2ncccc21 (relative stereo) [Compound 68, cis-N-{8-(3-Chlorophenoxy)-5,6,7,8-tetrahydroquinolin-5-yl}acrylamide]
6 | < 100 | < 1000 | < 3000 |  | C=CC(=O)N[C@H]1CC[C@@H](Oc2ccc(C(F)(F)F)c(F)c2)c2nc(Cl)ccc21 (relative stereo) [Compound 187, cis-N-[2-Chloro-8-{3-fluoro-4-(trifluoromethyl)phenoxy}-5,6,7,8-tetrahydroquinolin-5-yl]acrylamide]
7 | < 100 | < 1000 | < 3000 |  | C=CC(=O)NCc1cnc(Oc2ccc(Cl)cc2)c2ncccc12 [Compound 227, N-[{8-(4-Chlorophenoxy)-1,7-naphthyridin-5-yl}methyl]acrylamide]
8 |  | < 1000 | < 3000 | 100 to 1000 | C=CC(=O)NCc1ccc(C(O)c2ccc(C(F)(F)F)cc2)c2ncccc12 (stereo not drawn) [Compound 206, N-{(8-[Hydroxy{4-(trifluoromethyl)phenyl}methyl]quinolin-5-yl)methyl}acrylamide]
9 | < 100 | < 1000 | < 3000 |  | C=CC(=O)N[C@@H]1c2ccc(Oc3ccc(C(F)(F)F)cc3)cc2OC[C@H]1F (relative stereo) [Compound 22, trans-N-[3-Fluoro-7-{4-(trifluoromethyl)phenoxy}chroman-4-yl]acrylamide]
10 | < 100 | < 1000 | < 3000 |  | C=CC(=O)Nc1ccc(Oc2ccccc2)c2nc(C)ccc12 [Compound 112, N-(2-Methyl-8-phenoxyquinolin-5-yl)acrylamide]
11 | < 100 | < 1000 | < 3000 |  | C=CC(=O)NCc1cnc(Oc2ccc(C(F)(F)F)cc2)c2ccccc12 [Compound 222, N-([1-{4-(Trifluoromethyl)phenoxy}isoquinolin-4-yl]methyl)acrylamide]
12 | < 100 | < 1000 | < 3000 |  | C=CC(=O)Nc1cncc(Oc2ccnc(C(F)(F)F)c2)c1 [Compound 108, N-(5-[{2-(Trifluoromethyl)pyridin-4-yl}oxy]pyridin-3-yl)acrylamide]
13 | < 100 | < 1000 | < 3000 |  | C=CC(=O)Nc1ccc(Oc2ccccc2)c2ncccc12 [Compound 111, N-(8-Phenoxyquinolin-5-yl)acrylamide]
14 | < 100 | < 1000 | < 3000 |  | C=CC(=O)Nc1cncc(Oc2cccc(C(F)(F)F)c2)c1 [Compound 95, N-[5-{3-(Trifluoromethyl)phenoxy}pyridin-3-yl]acrylamide]
15 | < 100 | < 1000 | < 3000 |  | C=CC(=O)NCc1ccc(Oc2ccc(C(F)(F)F)nc2)c2ncccc12 [Compound 143, N-{(8-[{6-(Trifluoromethyl)pyridin-3-yl}oxy]quinolin-5-yl)methyl}acrylamide]
16 | < 100 | < 1000 | < 3000 |  | C=CC(=O)NCc1ccc(Oc2ccc(C(F)(F)F)cc2)c2ccncc12 [Compound 225, N-([5-{4-(Trifluoromethyl)phenoxy}isoquinolin-8-yl]methyl)acrylamide]

Row | GI50 ([1]; group less than 100 nmol/L) [nM] | GI50 [2] [nM] | GI50 [3] [nM] | GI50 [1, 4] [nM] | Compound
17 | < 100 | < 1000 | < 3000 |  | C=CC(=O)NCc1ccc(Oc2ccc(C(F)(F)F)cc2)c2ncccc12 [Compound 138, N-([8-{4-(Trifluoromethyl)phenoxy}quinolin-5-yl]methyl)acrylamide]
18 | < 100 | < 1000 | < 3000 |  | C=CC(=O)NCc1ccc(Oc2ccc(C(F)(F)F)cc2)c2cnccc12 [Compound 223, N-([8-{4-(Trifluoromethyl)phenoxy}isoquinolin-5-yl]methyl)acrylamide]
19 | < 100 | < 1000 | < 3000 |  | C=CC(=O)NC1CCOc2c1ccc(Oc1ccc(C(F)(F)F)cc1)c2C (stereo not drawn) [Compound 28, N-[8-Methyl-7-{4-(trifluoromethyl)phenoxy}chroman-4-yl]acrylamide]
20 | < 100 | < 1000 | < 3000 |  | C=CC(=O)NC1CCOc2c1ccc(Oc1ccc(C(F)(F)F)cc1)c2F (racemic) [Compound 31, N-[8-Fluoro-7-{4-(trifluoromethyl)phenoxy}chroman-4-yl]acrylamide]
21 | < 100 | < 1000 | < 3000 |  | C=CC(=O)NC1CCOc2cc(Oc3ccc(C(F)(F)F)cc3)ccc21 (stereo not drawn) [Compound 5, N-[7-{4-(trifluoromethyl)phenoxy}chroman-4-yl]acrylamide]
22 | < 100 | < 1000 | < 3000 |  | C=CC(=O)Nc1ccc(OCC2CCC(F)(F)CC2)c2ncccc12 [Compound 126, N-[8-{(4,4-Difluorocyclohexyl)methoxy}quinolin-5-yl]acrylamide]
23 | < 100 | < 1000 | < 3000 |  | C=CC(=O)NCc1ccc(Oc2ccc(Cl)cc2)c2c1CCCO2 [Compound 176, N-[{8-(4-Chlorophenoxy)chroman-5-yl}methyl]acrylamide]
24 | < 100 | < 1000 | < 3000 |  | C=CC(=O)N[C@@H]1CC[C@H](Oc2ccc(C(F)(F)F)cc2)c2ncc(Cl)cc21 (relative stereo) [Compound 190, N-((5R*,8S*)-3-Chloro-8-(4-(trifluoromethyl)phenoxy)-5,6,7,8-tetrahydroquinolin-5-yl)acrylamide]
25 | < 100 | < 1000 | < 3000 |  | C=CC(=O)NCc1cc(Oc2ccc(C(F)(F)F)nc2)nc2ccccc12 [Compound 149, N-{(2-[{6-(Trifluoromethyl)pyridin-3-yl}oxy]quinolin-4-yl)methyl}acrylamide]
26 | < 100 | < 1000 | < 3000 |  | C=CC(=O)NCc1ccc(Cc2ccc(C(F)(F)F)cc2)c2ncccc12 [Compound 211, N-([8-{4-(Trifluoromethyl)benzyl}quinolin-5-yl]methyl)acrylamide]
27 |  | < 1000 | < 3000 | 100 to 1000 | Nc1cncc(OCC2CCC(F)(F)CC2)c1 [Compound 192, 5-[(4,4-Difluorocyclohexyl)methoxy]pyridin-3-amine]
28 | < 100 | < 1000 | < 3000 |  | C=CC(=O)NCc1ccc(Oc2ccc(Cl)cc2)c2ncccc12 [Compound 134, N-[{8-(4-Chlorophenoxy)quinolin-5-yl}methyl]acrylamide]
29 | < 100 | < 1000 | < 3000 |  | C=CC(=O)Nc1cncc(Oc2ccc(C(F)(F)F)cc2)c1 [Compound 96, N-[5-{4-(Trifluoromethyl)phenoxy}pyridin-3-yl]acrylamide]
30 | < 100 | < 1000 | < 3000 |  | C=CC(=O)NCc1ccc(Oc2cccc(C(F)(F)F)c2)c2ncccc12 [Compound 137, N-([8-{3-(Trifluoromethyl)phenoxy}quinolin-5-yl]methyl)acrylamide]
31 | < 100 | < 1000 | < 3000 |  | C=CC(=O)NC1CCOc2c1ccc(Oc1ccc(C(F)(F)F)nc1)c2Br (stereo not drawn) [Compound 169, N-(8-Bromo-7-[{6-(trifluoromethyl)pyridin-3-yl}oxy]chroman-4-yl)acrylamide]

Source: patent US11332455B2, “α,β-unsaturated amide compound” (KYOWA KIRIN CO., LTD., priority 2015, dated 2022)
